From patent publication US20250059165A1, “PIPERIDINYLPYRIDINYLCARBONITRILE DERIVATIVES AS INHIBITORS OF GLUTAMINYL-PEPTIDE CYCLOTRANSFERASE AND GLUTAMINYL-PEPTIDE CYCLOTRANSFERASE LIKE PROTEIN” (Boehringer Ingelheim International GmbH, priority 2023, published 2025)

How the values were obtained:
QPCTL = molecular target: T1, QPCTL (Homo sapiens, UniProt Q9NXS2); assay: Assay A: biochemical QPCTL activity assay (MALDI-TOF MS, CD47 peptide substrate); details: 0.5 nM enzyme, 10 μM CD47 peptide substrate; read-out: Inhibition of QPCTL: IC50
T1 construct: made in house
T1 sequence (Q9NXS2 whole entry): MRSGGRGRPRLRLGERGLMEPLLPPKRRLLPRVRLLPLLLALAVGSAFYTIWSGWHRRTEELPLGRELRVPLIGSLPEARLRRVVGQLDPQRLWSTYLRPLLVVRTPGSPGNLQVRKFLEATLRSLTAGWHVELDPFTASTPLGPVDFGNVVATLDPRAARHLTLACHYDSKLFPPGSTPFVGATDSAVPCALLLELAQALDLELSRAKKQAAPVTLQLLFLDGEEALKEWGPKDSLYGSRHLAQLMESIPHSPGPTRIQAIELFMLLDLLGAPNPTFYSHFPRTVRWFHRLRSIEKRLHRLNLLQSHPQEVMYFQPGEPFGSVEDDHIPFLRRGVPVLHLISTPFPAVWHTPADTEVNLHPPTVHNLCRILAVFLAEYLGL
Protocol: (§1) QPCT or QPCTL dependent conversion of N-terminal glutamine to pyroglutamate of CD47 was monitored via MALDI-TOF MS. Test compounds were dissolved in 100% DMSO and serially diluted into clear 1,536-well microtiter plates. […] The plates were incubated for 10 min in a humidified incubator at 24° C. Subsequently, 2.5 μL of CD47 peptide substrate surrogate (^19[…]^33) was added to each well (final concentration: 10 μM for QPCTL/20 μM for QPCT). […] The plates were sealed with an adhesive foil, mixed for 30 s at 1,000 rpm and stored at room temperature until preparation of the MALDI target plates. MALDI target plates were prepared as described previously. […] QPCT or QPCTL activity was monitored by calculating the ratio between product and internal standard signals followed by normalization to high (100% activity) and low (0% activity) controls. Determination of compound potencies was obtained by fitting the dose-response data to a four-parameter logistical equation.

[1] = tested on: SIRPα signalling induced by Raji cells; assay: Assay B: SIRPα signalling assay using Raji cells; format: cell-based; details: Homo sapiens, 48 h compound incubation, Jurkat PathHunter SIRPαV1 reporter cells, read-out: Inhibition of SIRPα signalling induced by Raji cells: IC50
Protocol: (§2) Two cell types are independently used: the Raji cell line (lymphoblast-like human cell line derived from B lymphocytes from a Burkitt's lymphoma patient in 1963) and A549 cells (adenocarcinomic human alveolar basal epithelial cells).
(§3) Test compounds were dissolved in 100% DMSO and serially diluted into a white 384-well microtiter cell culture plate (PerkinElmer #60076780 in case of Raji assay; PDL-coated plates Greiner #781945 in case of A549 assay). 5000 Raji cells (ATCC #CC86) or 5000 A549 cells (ATCC #CCL-185) in Assay Complete Cell Plating reagent 30 (DiscoverX 93-0563R30B) were added per well. The assay plate was incubated for 48 h at 37° C., 95% humidity and 5% CO2. 15000 reporter cells (Jurkat PathHunter SIRPαV1, DiscoverX #93-1135C19) were added to each well, and the plate was incubated for 5 h at 37° C., 95% humidity and 5% CO2. Bioassay reagent 1 of the PathHunter Bioassay detection kit (DiscoverX 93-0001) was added to each well of the plate using a multichannel pipette followed by a 15 min incubation at room temperature. Afterwards bioassay reagent 2 was added followed by […] incubation at room temperature (incubation in the dark). The analysis of the data was performed using the luminescence signal generated by beta-galactosidase in the PathHunter reporter cell line. The luminescence measurement was done using a Pherastar Multi-Mode Reader. Dose-response curves & IC50 data were calculated with 4-parameter sigmoidal dose response formula.

[2] = tested on: SIRPα signalling induced by A549 cells; assay: Assay B: SIRPα signalling assay using A549 cells; format: cell-based; details: Homo sapiens, 48 h compound incubation, Jurkat PathHunter SIRPαV1 reporter cells, read-out: Inhibition of SIRPα signalling induced by A549 cells: IC50
Protocol: as §2, §3

QPCT = molecular target: T2, QPCT (Homo sapiens, UniProt Q16769); assay: Assay A: biochemical QPCT activity assay (MALDI-TOF MS, CD47 peptide substrate); details: 0.5 nM enzyme, 20 μM CD47 peptide substrate; read-out: Inhibition of QPCT: IC50
T2 construct: purchased Origine (OriGene) TP700028
T2 sequence (Q16769 29-361): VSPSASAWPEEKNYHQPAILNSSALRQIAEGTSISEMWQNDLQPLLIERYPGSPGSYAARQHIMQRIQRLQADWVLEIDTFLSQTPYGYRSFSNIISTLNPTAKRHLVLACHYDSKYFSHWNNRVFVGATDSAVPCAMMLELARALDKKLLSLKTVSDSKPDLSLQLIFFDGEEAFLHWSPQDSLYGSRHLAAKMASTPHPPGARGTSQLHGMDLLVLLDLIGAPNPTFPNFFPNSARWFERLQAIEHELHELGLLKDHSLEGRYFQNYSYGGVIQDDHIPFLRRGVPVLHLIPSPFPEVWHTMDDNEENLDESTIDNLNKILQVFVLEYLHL
Protocol: as §1

[3] = Assay C: permeability in CACO-2 cells; format: in vitro ADME; details: human, pH 7.2; for efflux ratio: Caco-2, Permeability B-A/Permeability A-B; for Papp A→B: Caco-2, apical to basolateral
Protocol: Caco-2 cells (1−2×10^5 cells/1 cm^2 area) are seeded on filter inserts (Costar transwell polycarbonate or PET filters, 0.4 µm pore size) and cultured (DMEM) for 10 to 25 days. Compounds are dissolved in appropriate solvent (like DMSO, 1-20 mM stock solutions). […] The transport solution (TL) is applied to the apical or basolateral donor side for measuring A-B or B-A permeability (3 filter replicates), respectively. Samples are collected at the start and end of experiment from the donor and at various time intervals for up to 2 hours also from the receiver side for concentration measurement by HPLC-MS/MS or scintillation counting. Sampled receiver volumes are replaced with fresh receiver solution. Efflux Ratio (ER)=Permeability B-A/Permeability A-B

Compound: Cn1cnnc1C1(F)CCN(c2c(C#N)ccnc2-c2cnc3nn(Cc4ccccc4)nc3c2)CC1 [Example 12]
- IC50 (QPCTL): 3 nM
- IC50 [1]: 150 nM
- IC50 [2]: 45 nM
- IC50 (QPCT): 4 nM
- efflux ratio [3]: 9.9
- Papp A→B [3]: 9.4 ×10⁻⁶ cm/s

Compound: Cn1c(N)nnc1C1CCN(c2ncccc2-c2ccc(F)nc2)CC1 [Prior art Compound 6, reference compound]
- IC50 (QPCTL): 1 nM
- IC50 [1]: 8 nM
- IC50 [2]: 12 nM
- IC50 (QPCT): 1 nM
- efflux ratio [3]: 65
- Papp A→B [3]: 0.2 ×10⁻⁶ cm/s
